Common to all, as to format: cell-based
The subject of test [1] is androgen-treated cancer cell lines (AR+ and AR-). In words: Cell growth after 7 days of treatment with dihydrotestosterone, enzalutamide and their combination. As to conditions: for cell growth on androgen stimulation: DHT 10 nM. On the procedure:
(§1) • Figure 1. […] Study of cell proliferation by MTT assay in AR+ MCF7, BT474, BT549 and HS 578T lines and in AR-HCC1937, HCC1569 and MDA-MB-231 lines at 24, 48 and 72 hours after enzalutamide treatment. Error bars are not shown when smaller than the symbol size. IC50 (best fit and 95% confidence interval) shown below. • Figure 2. […] Cell viability study by Annexin V/propidium iodide labelling in AR+ MCF7, BT474, BT549 and HS 578T lines and in AR- HCC1937, HCC1569 and MDA-MB-231 lines after 72 hours of enzalutamide treatment. Error bars represent SD. Significance between C- and different conditions shown without brackets (^∗p < 0.05, ^∗∗p < 0.01, ★p<0.001). • Figure 3. A) Effect of […] dihydrotestosterone, 10 µM enzalutamide and their combination on the indicated cell lines after 7 days of treatment. Data are the average of three independent experiments. Error bars represent SD. Statistically significant differences between C- and different conditions are shown without brackets (*p < 0.05, **p < 0.01, *p<0.001). […] Study of cell proliferation by MTT assay in the AR+ LN18 line and in the AR- SKOV-3 and CAL33 lines at 24, 48 and 72 hours after treatment with enzalutamide.
To assess whether the effect of enzalutamide is androgen-independent, we tested the effect of enzalutamide on androgen-treated cancer cell lines. We studied the effects of dihydrotestosterone (DHT) (10 nM), enzalutamide (10 µM) and their combination on the different lines (Figure 3A).

For test [2], the system named is AR+ MCF7, BT474, BT549 and HS 578T lines and AR- HCC1937, HCC1569 and MDA-MB-231 lines. In words: Cell proliferation by MTT assay in breast cancer cell lines. The method, then: as §1
On the technique in general: Tetrazolium dyes change colour on reduction, which living cells bring about.

For test [3] the test system is unchanged. Kind of test: Apoptosis / cell viability by Annexin V/propidium iodide labelling and flow cytometry in breast cancer cell lines. As to conditions: varying concentrations, 72 hours, independent of receptor status. The method, then:
as §1
A general note: A flow cytometer gives signals particle by particle.

Test [4] relates to AR+ LN18 line and AR- SKOV-3 and CAL33 lines. Kind of test: Cell proliferation by MTT assay in ovarian, glioblastoma and head and neck cancer cell lines. As to conditions: SKOV-3 (AR-), 24, 48 and 72 hours, preliminary results. On the procedure:
as §1

Consider `C[C@]12CCC(=O)C[C@@H]1CC[C@@H]1[C@@H]2CC[C@]2(C)[C@@H](O)CC[C@@H]12` [dihydrotestosterone], for which the “cell growth on androgen stimulation” value in test [1] (BT474 (AR+) and AR- lines) is on record as “No significant differences”; in test [1] (HS 578 T, followed by BT549 and MCF7 (AR+)), “highest increase in cell growth”.

With `CNC(=O)c1ccc(N2C(=S)N(c3ccc(C#N)c(C(F)(F)F)c3)C(=O)C2(C)C)cc1F` [enzalutamide], the “cell growth inhibition, ranking of cell lines” value in test [2] (MDA-MB-231 (AR-) line, 24, 48 or 72 hours, followed by HCC1569 (AR-), BT474 (AR+) and BT549 (AR+)) was “the most affected”. Further, in test [2] (all breast cancer cell lines tested (AR+ and AR-), 24, 48 and 72 hours of treatment, higher efficacy at 72 hours), the cell proliferation entry was “inhibited cell proliferation in a dose- and time-dependent manner in all cell lines tested”. Also, the apoptosis result in test [3] is “induced apoptosis in a dose-dependent manner”. Also, in test [1] (enzalutamide 10 µM alone), the inhibition of proliferation entry is reported as “induced a higher inhibition of proliferation than that observed at 72 hours”. Moreover, the “inhibition of cell proliferation” value in test [1] (enzalutamide 10 µM combined with DHT 10 nM, AR+ and AR- cells) is “the inhibition of cell proliferation was less than that of enzalutamide alone”. The proliferation result in test [4] is recorded as “induces an inhibitory effect on proliferation regardless of the androgen receptor status of the tumours”.

These data come from EP4400100A1, “ANT[…] USE IN THE TREATMENT OF CANCER” (Instituto de Investigación Biomédica de Salamanca De la …, priority 2023, dated 2024).
